Reference: ChEMBL document CHEMBL1909046, “DrugMatrix in vitro pharmacology data”

How the values were obtained:
[1] = target: T1, Cytochrome P450 1A2 (Homo sapiens, UniProt P05177); conditions: bti-tn-5b1-4; further: in other assays of this panel Not Active means under 50% inhibition at 10 µM
T1 sequence (P05177 whole entry): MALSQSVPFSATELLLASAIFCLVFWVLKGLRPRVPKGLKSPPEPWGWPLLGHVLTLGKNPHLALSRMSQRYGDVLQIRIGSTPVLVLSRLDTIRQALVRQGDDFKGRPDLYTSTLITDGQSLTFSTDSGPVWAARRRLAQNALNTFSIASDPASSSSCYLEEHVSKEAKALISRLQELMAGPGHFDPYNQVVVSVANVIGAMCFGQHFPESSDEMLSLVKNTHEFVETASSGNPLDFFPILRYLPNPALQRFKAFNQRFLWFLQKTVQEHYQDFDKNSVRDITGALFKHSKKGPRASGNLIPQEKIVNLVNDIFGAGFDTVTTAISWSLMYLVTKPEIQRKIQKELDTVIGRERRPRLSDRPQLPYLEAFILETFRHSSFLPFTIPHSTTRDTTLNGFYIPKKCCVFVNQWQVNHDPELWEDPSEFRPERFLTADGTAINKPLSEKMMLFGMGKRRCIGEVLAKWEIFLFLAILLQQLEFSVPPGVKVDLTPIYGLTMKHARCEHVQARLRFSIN

[2] = target: Aldo-keto reductase family 1 member B1 (Rattus norvegicus, UniProt P07943); test: biochemical; type: tissue-based, Lens of camera-type eye;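 further: inhibition of aldose reductase enzyme activity, measured with DL-glyceraldehyde as the substrate; in other assays of this panel Not Active means under 50% inhibition at 10 µM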
[3] = target: T2, Alpha-2C adrenergic receptor (Homo sapiens, UniProt P18825); test: DRUGMATRIX: Adrenergic Alpha-2C radioligand binding (ligand: [3H] MK-912); type: cell membranes, Sf9, Membrane; conditions: sf9
T2 sequence (P18825 whole entry): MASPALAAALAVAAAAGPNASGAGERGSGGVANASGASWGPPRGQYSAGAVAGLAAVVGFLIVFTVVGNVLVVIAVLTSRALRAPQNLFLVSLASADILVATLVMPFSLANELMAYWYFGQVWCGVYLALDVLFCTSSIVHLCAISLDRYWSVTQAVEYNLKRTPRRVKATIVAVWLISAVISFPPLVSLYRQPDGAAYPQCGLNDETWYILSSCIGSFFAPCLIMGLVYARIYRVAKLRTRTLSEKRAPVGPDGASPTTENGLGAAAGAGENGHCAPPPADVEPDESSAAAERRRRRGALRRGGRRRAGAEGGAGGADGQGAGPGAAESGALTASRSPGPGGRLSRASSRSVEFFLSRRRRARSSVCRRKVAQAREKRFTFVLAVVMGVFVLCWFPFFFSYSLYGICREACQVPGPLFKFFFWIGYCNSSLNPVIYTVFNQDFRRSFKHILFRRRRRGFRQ

[4] = target: T3, Cytochrome P450 2A6 (Homo sapiens, UniProt P11509); conditions: bti-tn-5b1-4; further: in other assays of this panel Not Active means under 50% inhibition at 10 µM
T3 sequence (P11509 whole entry): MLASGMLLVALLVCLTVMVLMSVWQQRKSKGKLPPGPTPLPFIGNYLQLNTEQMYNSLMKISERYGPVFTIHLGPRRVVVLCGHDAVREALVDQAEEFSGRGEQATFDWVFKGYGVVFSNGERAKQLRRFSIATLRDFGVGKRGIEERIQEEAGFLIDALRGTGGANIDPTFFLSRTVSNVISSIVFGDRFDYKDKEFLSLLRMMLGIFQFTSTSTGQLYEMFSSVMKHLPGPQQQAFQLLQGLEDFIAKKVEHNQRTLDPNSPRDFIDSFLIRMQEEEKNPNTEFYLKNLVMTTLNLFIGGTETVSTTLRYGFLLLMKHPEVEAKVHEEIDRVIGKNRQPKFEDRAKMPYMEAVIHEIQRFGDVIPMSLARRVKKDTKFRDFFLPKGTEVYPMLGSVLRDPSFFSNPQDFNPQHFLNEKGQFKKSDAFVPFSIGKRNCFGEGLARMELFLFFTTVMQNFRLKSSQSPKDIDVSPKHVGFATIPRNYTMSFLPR

[5] = target: Melanocortin receptor 4 (Homo sapiens, UniProt P32245); type: cell membranes, Membrane; conditions: hek293; further: in other assays of this panel Not Active means under 50% inhibition at 10 µM
Melanocortin receptor 4, sequence (P32245 whole entry): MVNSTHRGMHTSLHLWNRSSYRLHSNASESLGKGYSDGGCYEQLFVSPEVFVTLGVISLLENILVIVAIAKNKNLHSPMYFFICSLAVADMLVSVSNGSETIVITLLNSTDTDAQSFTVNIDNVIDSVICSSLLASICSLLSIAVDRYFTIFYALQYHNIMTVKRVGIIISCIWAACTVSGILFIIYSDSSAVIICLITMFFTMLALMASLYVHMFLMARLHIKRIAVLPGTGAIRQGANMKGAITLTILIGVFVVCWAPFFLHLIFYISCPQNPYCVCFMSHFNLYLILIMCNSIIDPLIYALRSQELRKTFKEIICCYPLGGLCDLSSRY

[6] = target: T4, Endothelin-1 receptor (Homo sapiens, UniProt P25101); type: cell membranes, Membrane; conditions: cho-k1; further: in other assays of this panel Not Active means under 50% inhibition at 10 µM
T4 sequence (P25101 whole entry): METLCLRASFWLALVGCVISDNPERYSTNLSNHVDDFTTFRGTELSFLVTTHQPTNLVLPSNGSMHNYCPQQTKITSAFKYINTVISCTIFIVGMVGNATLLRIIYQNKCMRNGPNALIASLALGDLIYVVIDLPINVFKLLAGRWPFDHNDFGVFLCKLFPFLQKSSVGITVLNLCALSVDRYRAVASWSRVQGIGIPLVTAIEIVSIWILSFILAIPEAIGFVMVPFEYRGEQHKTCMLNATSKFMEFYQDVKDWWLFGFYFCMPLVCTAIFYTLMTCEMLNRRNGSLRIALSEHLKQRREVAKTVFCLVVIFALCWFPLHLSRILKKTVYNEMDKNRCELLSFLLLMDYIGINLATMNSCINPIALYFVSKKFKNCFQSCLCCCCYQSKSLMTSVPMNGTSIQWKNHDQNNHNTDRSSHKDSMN

[7] = target: Beta-1 adrenergic receptor (Homo sapiens, UniProt P08588); test: DRUGMATRIX: Adrenergic beta1 radioligand binding (ligand: [125I] Cyanopindolol); type: cell membranes, CHO-K1, Membrane; conditions: cho-k1; Not Active = under 50% inhibition at 10 µM
Beta-1 adrenergic receptor, sequence (P08588 whole entry): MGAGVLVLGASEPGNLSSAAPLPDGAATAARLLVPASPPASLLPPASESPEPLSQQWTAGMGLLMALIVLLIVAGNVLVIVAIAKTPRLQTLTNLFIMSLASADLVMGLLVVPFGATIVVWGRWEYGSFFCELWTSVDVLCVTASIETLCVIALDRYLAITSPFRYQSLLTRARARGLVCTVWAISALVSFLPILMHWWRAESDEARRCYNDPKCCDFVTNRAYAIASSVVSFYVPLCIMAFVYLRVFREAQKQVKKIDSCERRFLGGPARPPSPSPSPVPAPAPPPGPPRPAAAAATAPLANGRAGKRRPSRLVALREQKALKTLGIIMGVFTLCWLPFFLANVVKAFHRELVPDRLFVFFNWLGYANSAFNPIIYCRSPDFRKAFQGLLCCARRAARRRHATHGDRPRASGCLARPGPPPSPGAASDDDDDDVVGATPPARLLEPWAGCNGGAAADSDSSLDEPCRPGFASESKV

[8] = target: T5, C-X-C chemokine receptor type 1 (Homo sapiens, UniProt P25024); further: in other assays of this panel Not Active means under 50% inhibition at 10 µM
T5 sequence (P25024 whole entry): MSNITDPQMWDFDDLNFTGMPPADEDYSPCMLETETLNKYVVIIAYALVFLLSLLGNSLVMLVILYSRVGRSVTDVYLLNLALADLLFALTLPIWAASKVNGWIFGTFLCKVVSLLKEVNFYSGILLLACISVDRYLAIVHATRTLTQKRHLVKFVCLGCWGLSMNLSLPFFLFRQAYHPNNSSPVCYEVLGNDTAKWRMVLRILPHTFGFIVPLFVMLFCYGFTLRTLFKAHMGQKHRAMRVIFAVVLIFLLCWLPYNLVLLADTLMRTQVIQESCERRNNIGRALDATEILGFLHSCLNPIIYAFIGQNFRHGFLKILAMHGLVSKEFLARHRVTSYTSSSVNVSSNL

CCC1=C[C@@H]2CN(C1)Cc1c([nH]c3ccccc13)[C@@](C(=O)OC)(c1cc3c(cc1OC)N(C)[C@H]1[C@@](O)(C(=O)OC)[C@H](OC(C)=O)[C@]4(CC)C=CCN5CC[C@]31[C@@H]54)C2 [VINORELBINE]
Not Active: IC50 [1] | Ki [1] | IC50 [2] | IC50 [3] | IC50 [4] | Ki [4] | IC50 [5] | IC50 [6] | IC50 [7] | IC50 [8]

CADMIUM DICHLORIDE
Not Active: IC50 [1] | Ki [1] | IC50 [2] | Ki [2] | IC50 [3] | Ki [3] | IC50 [4] | Ki [4] | IC50 [5] | Ki [5] | IC50 [6] | Ki [6] | IC50 [7] | Ki [7] | IC50 [8] | Ki [8]
